According to PMC6672714 (Frontiers in Physiology, 2019):
Entries after “also recorded” stand apart in the source; their conditions may differ. No end group written: not given here.

Columns and labels:
[1] = system: rat GH3 cells (CART mRNA); set-up: method as in Barrett et al., 2001; details: ref Barrett et al., 2001; cited from earlier work
[2] = system: cultured chick pituitary cells (GnRH1-induced CART mRNA); assay type: cell-based, chicken; details: H89 10 μM; GnRH1 10 nM, 24 h; N = 4
Procedure: (§1) As described in our recent studies ([Huang et al., 2014]; [Mo et al., 2015]), anterior pituitaries collected from 1-week-old chicks were sliced and digested by 0.25% trypsin at 37°C for 20 min. The dispersed pituitary cells were cultured at a density of 5 × 10^5 cells/well in Medium 199 supplemented with 15% fetal bovine serum in a Corning Cell BIND 48-well plates (Corning, Tewksbury, MA) at 37°C with 5% CO2. After 24-h culture, the medium was replaced with serum-free M199 medium and the cells were treated with chicken GnRH1/GnRH2 for the duration (12–48 h) or with increasing doses (0.1–100 nM) of each peptide. The total RNA was then extracted from cultured pituitary cells and the expression of CART and β-actin assayed by qPCR.
(§2) “ND” indicates no statistical difference between the two groups. Each data point represents mean ± SEM of four replicates (N = 4). ^**p < 0.01 vs. control; ^#p < 0.01 vs. GnRH1 treatment (in the absence of drug). […] Total ERK2 in cell lysates was also examined and used as internal controls. Note: only a single band for pERK2 or total ERK2 (42 kDa) was detected in cell lysate, because ERK1 gene is lost in chicken genome ([Gerilechaogetu et al., 2009]). The representative sets of independent experimental duplicates are shown here.
(§3) “ND” indicates no statistical difference between the two groups. Each data point represents mean ± SEM of four replicates (N = 4). ^**p < 0.01 vs. control. […] The β-actin in cell lysates were also examined and used as internal controls. The representative sets of independent experimental duplicates are shown here.

[3] = system: ovine pars tuberalis cells (CART mRNA); set-up: method as in Barrett et al., 2001; details: ref Barrett et al., 2001; cited from earlier work
[4] = system: cultured chick pituitary cells (CART mRNA); assay: CART mRNA expression in cultured chick pituitary cells, qPCR; assay type: cell-based, chicken; details: N = 4
Excerpt: Chicken anterior pituitaries were collected either for cell culture, or for total RNA extraction. Total RNA was extracted from chicken tissues or cultured pituitary cells using RNAzol (Molecular Research Center, Cincinnati, OH) and reversely transcribed using M-MLV reverse transcriptase (TaKaRa). Reverse transcription (RT) samples were then used for quantitative real-time PCR (qPCR) assays to investigate the mRNA expression of target genes, as described in our recent studies ([Cai et al., 2015]; [Mo et al., 2015]).
as §1
The data were analyzed by the Student’s t-test (between two groups) or by one-way ANOVA followed by the Dunnett test in GraphPad Prism 5 (GraphPad Software, San Diego, CA). To validate our results, all experiments were repeated at least three times.
The mRNA levels of CART were normalized by β-actin and expressed as the percentage of respective controls. Each value represents the mean ± SEM of four replicates (N = 4). ^*p < 0.05, ^**p < 0.01 vs. respective control. (E) RT-PCR detection of GnRHR2 expression in cultured chick pituitary cells (three replicates). RT was performed in the presence (+) or absence (−) of reverse transcriptase. Parallel PCR of β-actin was performed to serve as an internal control.

rats (plasma CART) = system: rats (plasma CART); set-up: method as in Stanley et al., 2004; details: intraperitoneal administration, ref Stanley et al., 2004; cited from earlier work
[5] = system: cultured chick pituitary cells (CART mRNA); set-up: method as in Mo et al., 2015; details: chickens; ref Mo et al., 2015; cited from earlier work
chicken GnRHR2 [6] = assay: pGL3-NFAT-RE-luciferase reporter, calcium signaling pathway, CHO cells expressing chicken GnRHR2; assay type: cell-based; details: four replicates
Excerpt: (§4) Based on the reported cDNA sequences of chicken GnRHR1 and GnRHR2 (accession nos.: NM_204653; NM_001012609) ([Sun et al., 2001]; [Shimizu and Bedecarrats, 2006]), gene-specific primers were used to amplify the open reading frame from adult chicken anterior pituitaries using high-fidelity Taq DNA polymerase (TOYOBO, Japan). The amplified PCR products were cloned into the pcDNA3.1 (+) expression vector (Invitrogen) and sequenced. According to our previously established methods, the signaling property of each receptor was examined in Chinese hamster ovary (CHO) cells using pGL3-NFAT-RE-luciferase ([Wang et al., 2012]), pGL4-SRE-luciferase ([Mo et al., 2015]), and pGL3-CRE-luciferase reporter systems ([Wang et al., 2007]).
(§5) Although two GnRH receptors (GnRHR1 and GnRHR2) have been identified in chickens ([Sun et al., 2001]; [Shimizu and Bedecarrats, 2006]; [Joseph et al., 2009]), their downstream signaling pathways have not been fully characterized.
(§6) Figure 5 Activation of chicken GnRHR1 or GnRHR2 expressed in CHO cells by chicken GnRH1 or GnRH2, monitored by pGL3-NFAT-RE-luciferase (A,D), pGL4-SRE-luciferase (B,E), and pGL3-CRE-luciferease (C,F) reporter systems. […] Each data point represents mean ± SEM of four replicates (N = 4).

chicken GnRHR2 [7] = assay: pGL3-CRE-luciferase reporter, cAMP/PKA signaling pathway, CHO cells expressing chicken GnRHR2; assay type: cell-based; details: four replicates
Excerpt: as §4, §5, §6

chicken GnRHR1 [8] = assay: pGL3-NFAT-RE-luciferase reporter, calcium signaling pathway, CHO cells expressing chicken GnRHR1; assay type: cell-based; details: four replicates
Excerpt: as §4, §5, §6

chicken GnRHR1 [9] = assay: pGL3-CRE-luciferase reporter, cAMP/PKA signaling pathway, CHO cells expressing chicken GnRHR1; assay type: cell-based; details: four replicates
Excerpt: as §4, §5, §6

ERK2 phosphorylation = ERK2 phosphorylation in cultured chick pituitary cells, Western blot; assay type: cell-based, chicken; details: 10 nM, 10 min, duplicates
Excerpt: as §2

chicken GnRHR2 [10] = assay: pGL4-SRE-luciferase reporter, MAPK/ERK signaling pathway, CHO cells expressing chicken GnRHR2; assay type: cell-based; details: four replicates
Excerpt: as §4, §5, §6

chicken GnRHR1 [11] = assay: pGL4-SRE-luciferase reporter, MAPK/ERK signaling pathway, CHO cells expressing chicken GnRHR1; assay type: cell-based; details: four replicates
Excerpt: as §4, §5, §6

chicks (plasma CART) = assay: plasma CART levels after intraperitoneal administration in chicks, ELISA; assay type: in vivo, chicken; details: 5 μg/chick, 30 min, male chicks
Procedure: The levels of CART peptide in chicken plasma was then determined by competitive ELISA assay.
Each data point represents mean ± SEM of seven 19-day-old male individuals (N = 7). ^*p < 0.05 vs. saline (control).

chicken GnRHR2 [12] = assay: three cell-based luciferase reporter assays, GnRHR2 (qualitative); details: GnRHR2, CHO cells, calcium, MAPK/ERK and cAMP/PKA reporters
Excerpt: as §4, §5, §6

chicken GnRHR1 [13] = assay: three cell-based luciferase reporter assays, GnRHR1 (qualitative); details: GnRHR1, CHO cells, calcium, MAPK/ERK and cAMP/PKA reporters
Excerpt: as §4, §5, §6

[14] = system: intact anterior pituitaries (CART secretion); assay: CART peptide secretion from intact anterior pituitaries incubated in vitro, Western blot; assay type: cell-based, chicken; details: 4 h, intact chick pituitaries, N = 3
Procedure: As described in our recent study ([Huang et al., 2014]), the intact anterior pituitaries collected from 1-week-old male chicks were washed with PBS and placed on a 48-well plate (NUNC) supplemented with 400 μl serum-free Medium 199 (Invitrogen). After 1-h incubation at 37°C, the medium was replaced by 300 μl serum-free Medium 199 containing different concentrations of chicken GnRH1 or GnRH2 (0.1–100 nM) and incubated for 4 h. […] Parallel blotting of β-actin and CART in pituitary tissue lysates was also conducted.
The intracellular CART (iCART) and β-actin levels in the pituitary tissue lysate were also examined in parallel. […] Each data point represents mean ± SEM of three replicates (N = 3). ^*p < 0.05; ^**p < 0.01 vs. respective control. […] One representative set of Western blot is shown at the top of each graph.

CREB phosphorylation = CREB phosphorylation in cultured chick pituitary cells, Western blot; assay type: cell-based, chicken; details: 10 nM, 5 min, duplicates
Excerpt: as §3

[15] = system: rat pituitary (CART secretion); set-up: method as in Kappeler et al., 2006; details: rat pituitary upon perfusion; ref Kappeler et al., 2006; cited from earlier work

In the case of `O=S(=O)(NCCNC/C=C/c1ccc(Br)cc1)c1cccc2cnccc12` [H89], the “effect on AC activator- or cAMP analog-stimulated CART mRNA levels” value [1] is listed as “abolished” and the “effect on GnRH1-induced CART mRNA expression” value [2] is listed as “could abolish GnRH1-induced CART expression”.
For `CCCCCCCCCCCCCC(=O)O[C@@H]1[C@@H](C)[C@@]2(O)[C@@H](C=C(CO)C[C@]3(O)C(=O)C(C)=C[C@@H]23)[C@@H]2C(C)(C)[C@]12OC(C)=O` [PMA, phorbol-12-myristate-13-acetate, reference compound], the “CART mRNA expression” value [3] is given as “enhances CART mRNA expression” and the “effect on CART mRNA expression” value ([4]; PMA 100 nM, 48 h) is given as “could mimic GnRH1 action”.
In the case of “CRH: corticotropin-releasing hormone, hypothalamic factor (literature results only)”, the “plasma CART levels” value (rats (plasma CART)) is listed as “increase plasma CART levels in rats” and the “potency as stimulator of pituitary CART secretion and expression” value [5] is listed as “potent stimulator of pituitary CART secretion and expression”.
For “GnRH1: chicken gonadotropin-releasing hormone 1, synthesized using solid-phase Fmoc chemistry; an ortholog of mammalian GnRH (QHWSYGLQPG; ends and bridges not checked; UniProt P37042 24-33, looked up)”, the EC50 (chicken GnRHR2 [6]) was 0.00154 µM, the EC50 (chicken GnRHR2 [7]) was 0.00215 µM and the EC50 (chicken GnRHR1 [8]) was 0.0113 µM. The EC50 (chicken GnRHR1 [9]) was 0.0693 µM, the ERK2 phosphorylation (ERK2 phosphorylation) was “could enhance ERK2 phosphorylation” and the EC50 (chicken GnRHR2 [10]) was 0.0299 µM. For the same compound, the EC50 (chicken GnRHR1 [11]) was 0.27 µM, the “effect on CART mRNA expression, dose dependence” value ([4]; 0–100 nM, 48 h, qPCR) was “stimulate CART expression dose-dependently” and the “treatment time of maximal effect on CART mRNA expression” value ([4]; 10 nM, qPCR) was 48 h. For the same compound, the “effect on CART mRNA expression” value ([4]; 10 nM, time course (12–48 h), qPCR) was “induce CART expression in a time-dependent manner”, the “minimal effective dose, CART mRNA expression” value ([4]; 48 h, qPCR) was 1 nM and the “increase in plasma CART levels vs saline” value (chicks (plasma CART); N = 7, p < 0.05) was “two-fold”. For the same compound, the “plasma CART level” value (chicks (plasma CART); N = 7, saline control 1.3 ng/ml, p < 0.05) was 2.7 ng/mL, the “activation of GnRHR2 (luciferase activity)” value (chicken GnRHR2 [12]) was “stimulate the luciferase activities dose-dependently; also recorded: potently activated by both GnRH1 and GnRH2” and the “activation of GnRHR1 (luciferase activity)” value (chicken GnRHR1 [13]) was “stimulate the luciferase activities dose-dependently”. For the same compound, the “secretion of mature CART peptide” value ([14]; 0–100 nM) was “potently stimulated the secretion of mature CART peptide”, the “minimal effective concentration, CART secretion” value [14] was 1 nM and the CREB phosphorylation (CREB phosphorylation) was “could enhance CREB phosphorylation”.
In the case of “GnRH: GnRH perfused on rat pituitary in a previous study (form not specified) (QHWSYGLRPG; ends and bridges not checked; UniProt P07490 24-33, looked up)”, the CART secretion [15] is listed as “CART secretion is induced”.
